# Experimental data from patent publication US10709119B2, “Methods of agent delivery into eggs and embryos of egg-producing aquatic animals for drug screening, agent toxicity assay and production of infertile fish” (University of Maryland Baltimore County, priority 2015, dated 2020).
# Experiments:
# [1] = tested on: chorion of zebrafish eggs; experiment: Uptake of fluorescein-dextran by zebrafish eggs incubated with guanidine-containing compounds (chorion permeability); assay type: in vivo; settings: 40 mM compound, 1 μM of 10, 20 or 40 KD fluorescein-dextran, 24 hours, versus untreated eggs
# Description: Zebrafish eggs were incubated in solutions that contained 1 μM of 10, 20 or 40 KD fluorescein-dextran with either 0 or 40 mM of arginine, guanidine-HCl or guanidine-thiocyanate for 24 hours.
# 40 zebrafish eggs were transferred into each well of 48-well plates that contained 300 μl of fresh tank system water. After the allocation of eggs, system water in each well was replaced with 300 μl of water that contained 0 or 40 μM of poly-arginine (9-arginine polymer) and 1 μM of 10 KD fluorescein-dextran. After 4 hours of incubation the eggs were examined using a MZ12 stereomicroscope (Leica, Buffalo Grove, USA), or an Axioplan 2 fluorescence microscope (ZEISS, Thornwood, N.Y., USA). Both microscopes were equipped with a DP70 digital camera (Olympus, Center Valley, Pa., USA).
# Atlantic salmon eggs = experiment: Induction of sterility in Atlantic salmon by immersion of eggs in salmonids' dnd-MO or dnd-MO-Vivo; settings: 10-month-old fish
# Description: A salmonids' dnd-MO (see Example 5) or a dendrimeric octaguanidine with a triazine core also known as Vivo, which was conjugated to salmonids' dnd-MO, resulting in salmonids' dnd-MO-Vivo, was used to induce sterility in Atlantic salmon and was tested by administering the following: • I: Salmonids' dnd-MO-Vivo 10 μM for 48 hours, administration to fertilized eggs at the beginning of water activation (within 1 minute). • II: Salmonids' dnd-MO-Vivo 10 μM for 48 hours, administration to unfertilized eggs with the immersion medium of the ovarian fluid. The eggs were fertilized after 48 hours of incubation. • III: Salmonids' dnd-MO-Vivo 10 μM for 48 hours, administration to unfertilized eggs with the immersion medium that contains salt, Tris (pH 8.0), Glycine, and 5% of fish serum. The fertilization was conducted after 48 hours of incubation. • IV: Salmonids' dnd-MO 20 μM for 48 hours, administration to unfertilized eggs with the immersion medium of the ovarian fluid. The eggs were fertilized after 48 hours of incubation. • V: Salmonids' dnd-MO 20 μM for 48 hours, administration to unfertilized eggs with the immersion medium that contains salt, Tris (pH 8.0), Glycine, and 5% of fish serum. The eggs were fertilized after 48 hours of incubation. • VI: Water or immersion medium only without neither salmonids' dnd-MO-Vivo nor dnd-MO as controls.
# [2] = tested on: rainbow trout embryos / unfertilized eggs; experiment: Induction of sterility in rainbow trout by immersion of eggs in salmonids' dnd-MO-Vivo; settings: 10 μM for 48 hours
# Description: A dendrimeric octaguanidine with a triazine core also known as Vivo, was conjugated to salmonids' dnd-MO, 5′-[…]-3′ (SEQ ID NO. 3) and used in an immersion containing rainbow trout embryos in water, or unfertilized eggs in ovarian fluid or fertilization diluent. The ability of methods disclosed herein to induce sterility in rainbow trout was tested by administering the following:
# I: Salmonids' dnd-MO-Vivo 10 μM for 48 hours, administration to fertilized eggs at the beginning of water activation (within 1 minute)
# II: Salmonids' dnd-MO-Vivo 10 μM for 48 hours, administration to unfertilized eggs with the immersion medium of the ovarian fluid. The fertilization was conducted after 48 hours of incubation.
# III: Salmonids' dnd-MO-Vivo 10 μM for 48 hours, administration to unfertilized eggs with the fertilization diluent that contains salt, Tris (pH 8.0), Glycine, and 5% of fish serum. The fertilization was conducted after 48 hours of incubation.
# IV: Water or immersion medium only without salmonids' dnd-MO-Vivo as controls.
compound,measurement,setting,value
Cl.N=C(N)N [guanidine-HCl],uptake of fluorescein-dextran in the eggs (green fluorescence),[1],enhanced the uptake of fluorescein-dextran
N#CS.N=C(N)N [guanidine-thiocyanate],uptake of fluorescein-dextran in the eggs (green fluorescence),[1],enhanced the uptake of fluorescein-dextran
"salmonids' dnd-MO: antisense Morpholino oligomer against salmonid dead end, 5′-CTGACTTGAACGCTCCTCCATTATC-3′ (SEQ ID NO. 3) (all phosphorodiamidate morpholino (PMO))",gonad morphology,"Atlantic salmon eggs; dnd-MO 20 μM for 48 hours, treatments IV, V (unfertilized eggs in ovarian fluid or immersion medium)",developed into a thin filament-like tissue
same,gonadal development in Atlantic salmon,"Atlantic salmon eggs; dnd-MO 20 μM for 48 hours, unfertilized eggs",blocked gonadal development
N=C(N)NCCC[C@H](N)C(=O)O [arginine],uptake of fluorescein-dextran in the eggs (green fluorescence),[1],enhanced the uptake of fluorescein-dextran
"salmonids' dnd-MO-Vivo: Vivo (dendrimeric octaguanidine with a triazine core) conjugated to salmonids' dnd-MO, 5′-CTGACTTGAACGCTCCTCCATTATC-3′ (SEQ ID NO. 3) (all phosphorodiamidate morpholino (PMO); Vivo octaguanidine dendrimer conjugated, attachment position not given here)",infertility in rainbow trout,[2],induced infertility
same,histological examination of gonadal tissue,"[2]; treatments I, II and III",under-developed without advanced gonadal structure or germ cells
same,gonad morphology,"[2]; treatments I, II and III (fertilized eggs at water activation; unfertilized eggs in ovarian fluid or fertilization diluent)",developed into a thin filament-like tissue
same,gonadal development in Atlantic salmon,Atlantic salmon eggs; dnd-MO-Vivo 10 μM for 48 hours,blocked gonadal development
same,gonad morphology,"Atlantic salmon eggs; dnd-MO-Vivo 10 μM for 48 hours, treatments I, II, III",developed into a thin filament-like tissue
